According to ChEMBL document CHEMBL1909046, “DrugMatrix in vitro pharmacology data”:

Legend:
[1] = DRUGMATRIX: Phosphodiesterase PDE3 enzyme inhibition (substrate: [3H]cAMP + cAMP); type: tissue-based, Homo sapiens; conditions: platelet, Not Active = under 50% inhibition at 10 µM
[2] = target: Tyrosine-protein kinase Lck (Homo sapiens, UniProt P06239); assay: DRUGMATRIX: Protein Tyrosine Kinase, LCK enzyme inhibition (substrate: Poly(Glu:Tyr)); type: cell-based, Insect cells; conditions: insect cells, Not Active = under 50% inhibition at 10 µM
Estrogen receptor beta = Estrogen receptor beta (Homo sapiens, UniProt Q92731); conditions: sf9; further: in other assays of this panel Not Active means under 50% inhibition at 10 µM
Nitric oxide synthase 1 = Nitric oxide synthase 1 (Rattus norvegicus, UniProt P29476); type: tissue-based, Cerebellum; further: in other assays of this panel Not Active means under 50% inhibition at 10 µM
[3] = target: Protein phosphatase 3 catalytic subunit alpha (Homo sapiens, UniProt Q08209); parameters: species or system Escherichia coli;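 further: inhibition of calcineurin (PP2B) enzyme activity, measured with DiFMUP as the substrate; in other assays of this panel Not Active means under 50% inhibition at 10 µM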
[4] = DRUGMATRIX: Atrial Natriuretic Factor (ANF) radioligand binding (ligand: [125I] ANF (rat)); type: cell membranes, Cavia porcellus, Dunkin-Hartley, Adrenal gland, Membrane; conditions: Not Active = under 50% inhibition at 10 µM
[5] = DRUGMATRIX: Potassium Channel [KATP] radioligand binding (ligand: [3H] Glyburide); type: cell membranes, Membrane; conditions: hit-t15; Not Active = under 50% inhibition at 10 µM
Caspase-1 = target: T1, Caspase-1 (Homo sapiens, UniProt P29466); parameters: species or system Escherichia coli;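 further: Caspase-1 enzyme inhibition assay with a peptide substrate; in other assays of this panel Not Active means under 50% inhibition at 10 µM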
T1 sequence (P29466 whole entry): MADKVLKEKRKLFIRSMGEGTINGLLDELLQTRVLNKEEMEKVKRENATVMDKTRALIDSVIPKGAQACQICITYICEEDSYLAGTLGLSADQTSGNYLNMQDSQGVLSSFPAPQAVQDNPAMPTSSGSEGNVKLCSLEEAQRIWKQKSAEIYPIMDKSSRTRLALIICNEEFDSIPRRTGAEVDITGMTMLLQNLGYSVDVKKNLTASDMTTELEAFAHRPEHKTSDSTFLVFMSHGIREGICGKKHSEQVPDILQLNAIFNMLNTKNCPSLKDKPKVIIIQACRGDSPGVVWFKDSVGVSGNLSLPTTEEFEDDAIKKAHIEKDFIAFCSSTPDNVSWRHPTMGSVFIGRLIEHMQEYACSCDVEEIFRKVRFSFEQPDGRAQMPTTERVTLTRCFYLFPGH

[6] = target: T2, Cysteinyl leukotriene receptor 1 (Homo sapiens, UniProt Q9Y271); type: cell membranes, CHO-K1, Membrane; conditions: cho-k1; further: in other assays of this panel Not Active means under 50% inhibition at 10 µM
T2 sequence (Q9Y271 whole entry): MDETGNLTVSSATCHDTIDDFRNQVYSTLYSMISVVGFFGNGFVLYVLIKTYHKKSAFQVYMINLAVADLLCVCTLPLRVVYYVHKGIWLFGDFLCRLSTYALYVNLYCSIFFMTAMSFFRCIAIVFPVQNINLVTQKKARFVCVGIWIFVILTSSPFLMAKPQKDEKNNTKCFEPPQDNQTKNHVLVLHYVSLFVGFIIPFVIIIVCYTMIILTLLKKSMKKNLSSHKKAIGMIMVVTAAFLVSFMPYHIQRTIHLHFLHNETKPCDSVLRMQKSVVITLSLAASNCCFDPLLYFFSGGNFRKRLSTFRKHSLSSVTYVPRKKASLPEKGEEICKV

[7] = target: 5-hydroxytryptamine receptor 4 (Cavia porcellus, UniProt O70528); type: cell membranes, Dunkin-Hartley, Striatum, Membrane; further: in other assays of this panel Not Active means under 50% inhibition at 10 µM
Adenosine receptor A2a = Adenosine receptor A2a (Homo sapiens, UniProt P29274); assay: DRUGMATRIX: Adenosine A2A radioligand binding (ligand: […]); type: cell membranes, HEK293, Membrane; conditions: hek293; Not Active = under 50% inhibition at 10 µM
[8] = DRUGMATRIX: Leukotriene, BLT (LTB4) radioligand binding (ligand: [3H]LTB4); type: cell membranes, Membrane; conditions: u-937; Not Active = under 50% inhibition at 10 µM
[9] = target: T3, Alpha-2C adrenergic receptor (Homo sapiens, UniProt P18825); assay: DRUGMATRIX: Adrenergic Alpha-2C radioligand binding (ligand: [3H] MK-912); type: cell membranes, Sf9, Membrane; conditions: sf9
T3 sequence (P18825 whole entry): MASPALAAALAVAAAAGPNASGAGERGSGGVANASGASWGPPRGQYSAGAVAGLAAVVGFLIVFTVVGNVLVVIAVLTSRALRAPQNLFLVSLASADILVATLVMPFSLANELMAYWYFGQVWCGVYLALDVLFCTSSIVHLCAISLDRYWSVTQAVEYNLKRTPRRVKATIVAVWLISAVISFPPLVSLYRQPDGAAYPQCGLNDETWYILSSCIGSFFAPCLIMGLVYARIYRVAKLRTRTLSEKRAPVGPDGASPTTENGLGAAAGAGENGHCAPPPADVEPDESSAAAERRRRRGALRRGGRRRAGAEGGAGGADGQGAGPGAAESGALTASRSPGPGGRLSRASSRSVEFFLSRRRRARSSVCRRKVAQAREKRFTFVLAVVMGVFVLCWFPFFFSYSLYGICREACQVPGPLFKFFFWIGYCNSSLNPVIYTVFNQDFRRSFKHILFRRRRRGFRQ

[10] = target: T4, C-X-C chemokine receptor type 1 (Homo sapiens, UniProt P25024); further: in other assays of this panel Not Active means under 50% inhibition at 10 µM
T4 sequence (P25024 whole entry): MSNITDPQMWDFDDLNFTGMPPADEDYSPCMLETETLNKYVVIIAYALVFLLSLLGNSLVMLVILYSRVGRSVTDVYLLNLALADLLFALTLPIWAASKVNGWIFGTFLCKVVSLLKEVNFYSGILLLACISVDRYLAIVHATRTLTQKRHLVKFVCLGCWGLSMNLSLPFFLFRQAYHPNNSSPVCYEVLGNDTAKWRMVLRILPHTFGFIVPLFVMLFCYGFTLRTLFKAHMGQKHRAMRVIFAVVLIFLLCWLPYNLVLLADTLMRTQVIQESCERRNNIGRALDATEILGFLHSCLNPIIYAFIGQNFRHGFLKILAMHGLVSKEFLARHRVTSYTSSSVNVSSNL

Estrogen receptor beta, sequence (Q92731 whole entry): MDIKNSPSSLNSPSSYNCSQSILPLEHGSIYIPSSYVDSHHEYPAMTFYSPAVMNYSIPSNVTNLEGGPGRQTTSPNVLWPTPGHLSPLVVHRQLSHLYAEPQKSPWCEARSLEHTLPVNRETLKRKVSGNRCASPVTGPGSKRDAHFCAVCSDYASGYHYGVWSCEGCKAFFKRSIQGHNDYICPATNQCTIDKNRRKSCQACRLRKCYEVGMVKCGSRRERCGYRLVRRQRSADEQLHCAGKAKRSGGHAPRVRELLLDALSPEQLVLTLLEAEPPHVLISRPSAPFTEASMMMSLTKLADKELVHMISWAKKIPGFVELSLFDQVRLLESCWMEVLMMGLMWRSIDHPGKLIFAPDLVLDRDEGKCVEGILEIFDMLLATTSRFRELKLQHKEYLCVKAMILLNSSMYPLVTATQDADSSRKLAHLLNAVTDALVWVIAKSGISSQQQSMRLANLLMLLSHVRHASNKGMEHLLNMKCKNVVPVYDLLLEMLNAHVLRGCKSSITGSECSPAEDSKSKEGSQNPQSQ
Tyrosine-protein kinase Lck, sequence (P06239 whole entry): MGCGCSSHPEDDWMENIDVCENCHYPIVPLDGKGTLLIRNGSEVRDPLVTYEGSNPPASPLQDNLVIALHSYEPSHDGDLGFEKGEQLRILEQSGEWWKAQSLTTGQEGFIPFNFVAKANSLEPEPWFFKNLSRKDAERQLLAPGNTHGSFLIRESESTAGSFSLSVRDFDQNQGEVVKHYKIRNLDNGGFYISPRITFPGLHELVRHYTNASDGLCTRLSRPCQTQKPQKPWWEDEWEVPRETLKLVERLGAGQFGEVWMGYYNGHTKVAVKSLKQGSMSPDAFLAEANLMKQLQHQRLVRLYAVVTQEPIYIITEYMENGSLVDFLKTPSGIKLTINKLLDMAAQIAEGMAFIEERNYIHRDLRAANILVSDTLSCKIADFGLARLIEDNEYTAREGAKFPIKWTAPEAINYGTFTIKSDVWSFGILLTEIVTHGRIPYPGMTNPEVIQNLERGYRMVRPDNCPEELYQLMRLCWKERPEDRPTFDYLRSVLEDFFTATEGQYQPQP
5-hydroxytryptamine receptor 4, sequence (O70528 whole entry): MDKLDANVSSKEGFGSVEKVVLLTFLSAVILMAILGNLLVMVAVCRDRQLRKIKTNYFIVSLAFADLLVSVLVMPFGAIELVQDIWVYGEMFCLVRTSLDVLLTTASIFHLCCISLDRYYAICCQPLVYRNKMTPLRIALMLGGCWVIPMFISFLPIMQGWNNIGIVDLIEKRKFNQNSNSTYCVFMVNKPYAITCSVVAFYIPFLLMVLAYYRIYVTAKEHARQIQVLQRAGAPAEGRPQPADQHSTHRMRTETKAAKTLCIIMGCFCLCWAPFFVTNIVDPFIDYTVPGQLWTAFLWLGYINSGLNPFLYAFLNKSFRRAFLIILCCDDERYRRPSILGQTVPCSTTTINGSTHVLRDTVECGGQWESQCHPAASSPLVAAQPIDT
Nitric oxide synthase 1, sequence (P29476 whole entry): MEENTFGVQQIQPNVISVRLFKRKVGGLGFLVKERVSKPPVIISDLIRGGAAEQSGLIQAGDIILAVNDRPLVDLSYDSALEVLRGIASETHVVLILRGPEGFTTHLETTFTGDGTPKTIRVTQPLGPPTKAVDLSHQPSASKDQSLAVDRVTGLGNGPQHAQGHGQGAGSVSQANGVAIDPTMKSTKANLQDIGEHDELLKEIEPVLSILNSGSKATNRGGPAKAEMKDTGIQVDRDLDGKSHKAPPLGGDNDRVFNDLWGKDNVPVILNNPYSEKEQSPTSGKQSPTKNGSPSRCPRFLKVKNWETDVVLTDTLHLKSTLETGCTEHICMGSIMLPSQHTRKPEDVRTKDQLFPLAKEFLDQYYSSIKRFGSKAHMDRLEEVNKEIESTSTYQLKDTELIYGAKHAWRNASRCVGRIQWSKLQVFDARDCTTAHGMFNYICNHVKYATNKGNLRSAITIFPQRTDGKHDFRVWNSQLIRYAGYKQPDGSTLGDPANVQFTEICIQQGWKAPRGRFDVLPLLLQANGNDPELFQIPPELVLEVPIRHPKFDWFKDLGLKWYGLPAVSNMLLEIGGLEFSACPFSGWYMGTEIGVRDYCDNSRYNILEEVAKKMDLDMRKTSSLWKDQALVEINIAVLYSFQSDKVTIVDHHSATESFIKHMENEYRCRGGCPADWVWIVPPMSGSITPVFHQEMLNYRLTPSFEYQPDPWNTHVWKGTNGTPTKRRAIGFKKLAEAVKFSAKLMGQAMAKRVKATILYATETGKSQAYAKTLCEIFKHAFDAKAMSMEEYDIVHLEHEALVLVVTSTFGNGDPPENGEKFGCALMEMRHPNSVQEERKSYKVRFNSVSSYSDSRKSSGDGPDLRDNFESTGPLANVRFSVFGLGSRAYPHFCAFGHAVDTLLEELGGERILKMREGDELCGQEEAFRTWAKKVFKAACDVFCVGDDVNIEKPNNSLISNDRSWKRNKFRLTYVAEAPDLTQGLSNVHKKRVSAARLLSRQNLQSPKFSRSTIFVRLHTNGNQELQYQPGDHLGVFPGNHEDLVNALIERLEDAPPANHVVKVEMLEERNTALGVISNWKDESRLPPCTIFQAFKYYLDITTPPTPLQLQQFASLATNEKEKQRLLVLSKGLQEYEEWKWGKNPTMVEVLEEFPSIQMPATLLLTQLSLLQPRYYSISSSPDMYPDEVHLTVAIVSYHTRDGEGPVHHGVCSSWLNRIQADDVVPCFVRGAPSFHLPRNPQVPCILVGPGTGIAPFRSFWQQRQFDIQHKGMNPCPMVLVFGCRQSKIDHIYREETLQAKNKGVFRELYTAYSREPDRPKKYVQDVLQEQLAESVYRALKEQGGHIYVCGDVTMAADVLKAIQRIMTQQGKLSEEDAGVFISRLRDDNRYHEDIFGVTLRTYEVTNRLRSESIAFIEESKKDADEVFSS
Adenosine receptor A2a, sequence (P29274 whole entry): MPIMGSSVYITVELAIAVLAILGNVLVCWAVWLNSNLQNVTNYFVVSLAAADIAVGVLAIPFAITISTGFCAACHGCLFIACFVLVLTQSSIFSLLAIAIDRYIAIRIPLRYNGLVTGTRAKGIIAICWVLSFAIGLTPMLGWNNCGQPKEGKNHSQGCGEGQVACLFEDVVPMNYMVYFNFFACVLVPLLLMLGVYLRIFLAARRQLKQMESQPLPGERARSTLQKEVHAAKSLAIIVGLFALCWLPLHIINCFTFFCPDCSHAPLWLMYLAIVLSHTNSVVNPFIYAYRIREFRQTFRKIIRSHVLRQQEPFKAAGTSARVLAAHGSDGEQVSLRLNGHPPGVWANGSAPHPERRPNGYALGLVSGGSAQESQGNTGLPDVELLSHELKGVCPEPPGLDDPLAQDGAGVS

CISPLATIN
22.9 µM: IC50 ([2]; read-out: IC50)
46.3 µM: IC50 ([1]; read-out: IC50)
Not Active: IC50 (Estrogen receptor beta) | Ki (Estrogen receptor beta) | IC50 (Nitric oxide synthase 1) | Ki (Nitric oxide synthase 1) | IC50 [3] | Ki [3] | IC50 [4] | Ki [4] | IC50 [5] | Ki [5] | IC50 (Caspase-1) | Ki (Caspase-1) | IC50 [6] | Ki [6] | IC50 [7] | Ki [7] | IC50 (Adenosine receptor A2a) | Ki (Adenosine receptor A2a) | IC50 [8] | Ki [8] | IC50 [9] | Ki [9] | IC50 [10] | Ki [10]

GOLD SODIUM THIOMALATE
Not Active: IC50 [1] | Ki [1] | IC50 [2] | Ki [2] | IC50 (Estrogen receptor beta) | Ki (Estrogen receptor beta) | IC50 (Nitric oxide synthase 1) | Ki (Nitric oxide synthase 1) | IC50 [3] | Ki [3] | IC50 [4] | Ki [4] | IC50 [5] | Ki [5] | IC50 (Caspase-1) | Ki (Caspase-1) | IC50 [6] | Ki [6] | IC50 [7] | Ki [7] | IC50 (Adenosine receptor A2a) | Ki (Adenosine receptor A2a) | IC50 [8] | Ki [8] | IC50 [9] | Ki [9] | IC50 [10] | Ki [10]

OXALIPLATIN
Not Active: IC50 [1] | Ki [1] | IC50 [2] | Ki [2] | IC50 (Estrogen receptor beta) | Ki (Estrogen receptor beta) | IC50 (Nitric oxide synthase 1) | Ki (Nitric oxide synthase 1) | IC50 [3] | Ki [3] | IC50 [4] | Ki [4] | IC50 [5] | Ki [5] | IC50 (Caspase-1) | Ki (Caspase-1) | IC50 [6] | Ki [6] | IC50 [7] | Ki [7] | IC50 (Adenosine receptor A2a) | Ki (Adenosine receptor A2a) | IC50 [8] | Ki [8] | IC50 [9] | Ki [9] | IC50 [10] | Ki [10]
